≈ marks a conversion by molar mass, not a printed value. Where two headings read alike, the source gives them in different places.
Assays:
HeLa cells = assay: Activity on HeLa cells viability in vitro; type: cell-based; details: Homo sapiens, read-out: ID50 (Inhibiting Dose 50%)
P 388 leukemia = assay: Activity against P 388 leukemia in mice (survival); type: in vivo; details: as hydrochloride
Method: (§1) The new anthracycline glycosides described in the invention, display antitumor activity. The compounds have been tested against HeLa cells "in vitro" (time of exposure to the drugs: 24 hours) and on P 388 leukemia in mice in comparison with daunorubicin and doxorubicin. The results of the "in vitro" tests, shown in Table I are reported as ID50 (Inhibiting Dose 50% in ng/ml).
(§2) The antitumor activity was tested "in vivo" on P 388 leukemia in comparison with daunorubicin and doxorubicin.
(§3) ^(a) Mice were treated i.p. on day 1 after tumor cell inoculation.
^(b) Median survival time of treated mice, over median survival time

[1] = Toxic deaths in mice treated in the P 388 leukemia test; type: in vivo; details: as hydrochloride
Method: as §1, §2, §3

[2] = HeLa cells viability in vitro, time of exposure to the drugs: 24 hours, compounds as hydrochloride
[3] = dose 4.4 mg/kg i.p. on day 1 after tumor cell inoculation
[4] = dose 6.6 mg/kg i.p. on day 1 after tumor cell inoculation
[5] = dose 10.0 mg/kg i.p. on day 1 after tumor cell inoculation
[6] = dose 22.5 mg/kg i.p. on day 1 after tumor cell inoculation
[7] = dose 33.7 mg/kg i.p. on day 1 after tumor cell inoculation
[8] = dose 50.5 mg/kg i.p. on day 1 after tumor cell inoculation
[9] = dose 2.9 mg/kg i.p. on day 1 after tumor cell inoculation

COc1cccc2c1C(=O)c1c(O)c3c(c(O)c1C2=O)C[C@@](O)(C(=O)CO)C[C@@H]3O[C@H]1C[C@H](N)[C@](C)(OC)[C@H](C)O1 [4'-C-Methyl-4'-O-methyl-adriamycin]
IC50 (HeLa cells; [2]): 0.005 µg/mL (≈ 0.00875 µM)
T/C (median survival time of treated mice over median survival time of control × 100) (P 388 leukemia; [3]): 165%
T/C (median survival time of treated mice over median survival time of control × 100) (P 388 leukemia; [4]): 172%
T/C (median survival time of treated mice over median survival time of control × 100) (P 388 leukemia; [5]): 202%
No. of toxic deaths/total [1, 3]: 0/10
No. of toxic deaths/total [1, 4]: 0/10
No. of toxic deaths/total [1, 5]: 2/17

COc1cccc2c1C(=O)c1c(O)c3c(c(O)c1C2=O)C[C@@](O)(C(C)=O)C[C@@H]3O[C@H]1C[C@H](N)[C@](C)(OC)[C@H](C)O1 [4'-C-methyl-4'-O-methyl-daunorubicin (V), 4'-C-Methyl-4'-O-methyl-daunomycin]
IC50 (HeLa cells; [2]): 0.034 µg/mL (≈ 0.0612 µM)
T/C (median survival time of treated mice over median survival time of control × 100) (P 388 leukemia; [4]): 140%
T/C (median survival time of treated mice over median survival time of control × 100) (P 388 leukemia; [6]): 155%
T/C (median survival time of treated mice over median survival time of control × 100) (P 388 leukemia; [7]): 150%
T/C (median survival time of treated mice over median survival time of control × 100) (P 388 leukemia; [8]): 137%
No. of toxic deaths/total [1, 4]: 0/18
No. of toxic deaths/total [1, 6]: 0/20
No. of toxic deaths/total [1, 7]: 0/26
No. of toxic deaths/total [1, 8]: 1/5

COc1cccc2c1C(=O)c1c(O)c3c(c(O)c1C2=O)C[C@@](O)(C(=O)CO)C[C@@H]3O[C@H]1C[C@H](N)[C@@](C)(OC)[C@H](C)O1 [4'-Epi-4'-C-methyl-4'-O-methyl-adriamycin]
IC50 (HeLa cells; [2]): 0.027 µg/mL (≈ 0.0472 µM)
T/C (median survival time of treated mice over median survival time of control × 100) (P 388 leukemia; [3]): 165%
T/C (median survival time of treated mice over median survival time of control × 100) (P 388 leukemia; [4]): 185%
T/C (median survival time of treated mice over median survival time of control × 100) (P 388 leukemia; [5]): 205%
No. of toxic deaths/total [1, 3]: 0/8
No. of toxic deaths/total [1, 4]: 0/8
No. of toxic deaths/total [1, 5]: 0/8

COc1cccc2c1C(=O)c1c(O)c3c(c(O)c1C2=O)C[C@@](O)(C(C)=O)C[C@@H]3O[C@H]1C[C@H](N)[C@@](C)(OC)[C@H](C)O1 [4'-Epi-4'-C-methyl-4'-O-methyl-daunomycin]
IC50 (HeLa cells; [2]): 0.0025 to 0.0034 µg/mL (≈ 0.0045 to 0.00612 µM)
T/C (median survival time of treated mice over median survival time of control × 100) (P 388 leukemia; [4]): 140%
T/C (median survival time of treated mice over median survival time of control × 100) (P 388 leukemia; [5]): 147%
T/C (median survival time of treated mice over median survival time of control × 100) (P 388 leukemia; [6]): 150%
No. of toxic deaths/total [1, 4]: 0/8
No. of toxic deaths/total [1, 5]: 0/8
No. of toxic deaths/total [1, 6]: 0/8

COc1cccc2c1C(=O)c1c(O)c3c(c(O)c1C2=O)C[C@@](O)(C(C)=O)C[C@@H]3O[C@H]1C[C@H](N)[C@H](O)[C@H](C)O1 [Daunorubicin, reference compound]
IC50 (HeLa cells; HeLa, 24 h): 0.01 µg/mL (≈ 0.019 µM)
T/C (median survival time of treated mice over median survival time of control × 100) (P 388 leukemia; [9]): 163%
T/C (median survival time of treated mice over median survival time of control × 100) (P 388 leukemia; [3]): 161%
T/C (median survival time of treated mice over median survival time of control × 100) (P 388 leukemia; [4]): 156%
No. of toxic deaths/total [1, 9]: 0/48
No. of toxic deaths/total [1, 3]: 3/48
No. of toxic deaths/total [1, 4]: 28/48

COc1cccc2c1C(=O)c1c(O)c3c(c(O)c1C2=O)C[C@@](O)(C(=O)CO)C[C@@H]3O[C@H]1C[C@H](N)[C@H](O)[C@H](C)O1 [Doxorubicin, reference compound]
IC50 (HeLa cells; HeLa, 24 h): 0.01 µg/mL (≈ 0.0184 µM)
T/C (median survival time of treated mice over median survival time of control × 100) (P 388 leukemia; [3]): 190%
T/C (median survival time of treated mice over median survival time of control × 100) (P 388 leukemia; [4]): 201%
T/C (median survival time of treated mice over median survival time of control × 100) (P 388 leukemia; [5]): 241%
No. of toxic deaths/total [1, 3]: 0/28
No. of toxic deaths/total [1, 4]: 0/28
No. of toxic deaths/total [1, 5]: 5/28
